Test results reported in US12078642B2, “Methods for evaluating and improving cognitive function” (THE UNIVERSITY OF MELBOURNE, priority 2017, dated 2024).
Several values for one entry are separate records, joined by “and”; a condition that tells them apart may be missing. Equal values may be shown once.

Test system: old mice
Assay: Barnes Maze cognitive function (memory) test
Assay type: in vivo, mouse
Settings: for Time searching for the escape hatch in the target zone after CE 18:1 versus before (FIG. 11): old mice (24 months), same mice before and after CE 18:1 enriched diet, 470 mg per kg
Protocol: The cognitive function of the mice was tested using a Barnes Maze. The Barnes maze makes use of a mouse's nature to avoid bright lights and open spaces. The Barnes maze was a white 150 cm disk with 36 evenly spaced holes. The disk is elevated 64 cm above the ground and four visual cues—two 3D cues and two 2D cues—are placed in four quadrants, denoting four possible escape holes. The escape box was placed under the assigned escape hole and fastened by tape. Four portable floodlights were used to evenly illuminate the maze and a light meter was used to ensure consistent brightness of 3400 to 3600 lux. Prior to the beginning of a trial, the maze and the escape box were cleaned with 80% ethanol to remove olfactory cues.
The mouse was placed in the centre of the maze under a cover. The cover was then retracted using a pulley system and the mouse was allowed to explore the maze for four minutes to find and enter the escape hole. If the mouse entered the escape hole in less than four minutes, the time was recorded and the floodlights switched off. If the mouse had not entered the escape hole after four minutes, the mouse was gently guided to the escape hole and lights were switched off. The mouse was allowed to remain in the escape box for one minute before it was returned to its home box outside the experimental room. For the probe trial, the escape box was removed and the trial length was shortened to 3 minutes (180 seconds). The duration required, distance traveled, and latency to the assigned escape hole was recorded using topscan lite 2.0. The time the mouse spent in the “target zone” (the 5 holes consisting of the assigned escape hole and the two holes on either side) searching for the assigned escape hole was also recorded.
Trials were conducted over seven days; day 1 contained a single habituation trial, days 2-6 contained 3 acquisition trials a day and day 7 contained a single probe trial. […]
The CE 18:1 oral administration consisted of 20 mg CE 18:1 suspended in 0.5 g of raspberry flavoured agar jelly. To prepare the CE 18:1 enriched jelly, 4 g of agar powder and 0.1 g NaOH pellets was dissolved in 13 ml raspberry flavoured cordial, with MilliQ water added q.s. to form a total of 200 mL jelly solution. To the jelly solution, 400 mg of cholesteryl oleate was suspended in 40 ml of jelly to form the CE 18:1 oral administration.
Seven old mice (24 months old) were subjected to the Barnes Maze as described above, and the time the mice spent investigating the “target zone” during the probe trial was investigated. The same seven old mice were then fed 0.5 g of the CE 18:1 enriched jelly once a day (20 mg CE 18:1, 4% w/w), which correlated to a CE 18:1 dosage rate of 470 mg per kg of bodyweight. The mice were the subjected to the Barnes Maze as described above, and the time the mice spent investigating the “target zone” during the probe trial was investigated.

[1] = individual old mice (24 months), probe trial of 180 s, after 0.5 g CE 18:1 enriched jelly once a day orally (20 mg CE 18:1, 470 mg per kg bodyweight), one value per mouse

## CCCCCCCC/C=C\CCCCCCCC(=O)O[C@H]1CC[C@@]2(C)C(=CC[C@H]3[C@@H]4CC[C@H]([C@H](C)CCCC(C)C)[C@@]4(C)CC[C@@H]32)C1 [CE 18:1, cholesteryl oleate]
Average of seven old mice (24 months), probe trial, after CE 18:1 jelly orally 470 mg per kg, before CE 18:1: 4.70%
  Percentage of time spent at target zone out of 180 sec (%), After CE 18:1, AVERAGE: 9.5%
Average of seven old mice (24 months), probe trial, after CE 18:1 jelly orally 470 mg per kg, before CE 18:1: 8.47 s
  Duration at target zone (s), After CE 18:1, AVERAGE: 17.10 s
[1]
  Duration at target zone (s), After CE 18:1: 16.00 s and 16.48 s and 28.68 s and 4.84 s and 23.40 s and 21.28 s and 9.04 s
  Percentage of time spent at target zone out of 180 sec (%), After CE 18:1: 8.89% and 9.16% and 15.93% and 2.69% and 13.00% and 11.82% and 5.02%
Probe trial
  Time searching for the escape hatch in the target zone after CE 18:1 versus before (FIG. 11): statistical increase in time searching for the escape hatch in the target zone
Probe trial, listed as cholesteryl oleate
  Time searching for the escape hatch in the target zone after CE 18:1 versus before (FIG. 11): improved cognitive function in mice
Probe trial, listed as cholesteryl oleate (CE 18:1)
  Time searching for the escape hatch in the target zone after CE 18:1 versus before (FIG. 11): spent more time investigating the target zone
